# Source: patent publication US9452986B2, “6-heteroaryloxy- or 6-aryloxy-quinoline-2-carboxamides and method of use” (AbbVie Inc., priority 2014, dated 2016)
# Target: recombinant human Nav1.7 (Homo sapiens (Human), UniProt Q15858)
# Experiment: FRET-based membrane potential assay, recombinant human sodium channel Nav1.7
# Format: cell-based
# Conditions: HEK293 cells stably expressing recombinant human Nav1.7; veratridine + scorpion venom depolarization; read-out: FRET-Membrane Potential Nav1.7 IC50
# How it was run: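 Channel activation used veratridine at its EC80, set by a dilution curve each experiment, together with Leiurus scorpion venom, added 3 min after compound. Membrane-potential ratio signals from FLIPR Tetra in HEPES-buffered HBSS were fitted to a four-parameter Hill equation for percent inhibition and IC50.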
# Sequence of recombinant human Nav1.7 (Q15858 whole entry): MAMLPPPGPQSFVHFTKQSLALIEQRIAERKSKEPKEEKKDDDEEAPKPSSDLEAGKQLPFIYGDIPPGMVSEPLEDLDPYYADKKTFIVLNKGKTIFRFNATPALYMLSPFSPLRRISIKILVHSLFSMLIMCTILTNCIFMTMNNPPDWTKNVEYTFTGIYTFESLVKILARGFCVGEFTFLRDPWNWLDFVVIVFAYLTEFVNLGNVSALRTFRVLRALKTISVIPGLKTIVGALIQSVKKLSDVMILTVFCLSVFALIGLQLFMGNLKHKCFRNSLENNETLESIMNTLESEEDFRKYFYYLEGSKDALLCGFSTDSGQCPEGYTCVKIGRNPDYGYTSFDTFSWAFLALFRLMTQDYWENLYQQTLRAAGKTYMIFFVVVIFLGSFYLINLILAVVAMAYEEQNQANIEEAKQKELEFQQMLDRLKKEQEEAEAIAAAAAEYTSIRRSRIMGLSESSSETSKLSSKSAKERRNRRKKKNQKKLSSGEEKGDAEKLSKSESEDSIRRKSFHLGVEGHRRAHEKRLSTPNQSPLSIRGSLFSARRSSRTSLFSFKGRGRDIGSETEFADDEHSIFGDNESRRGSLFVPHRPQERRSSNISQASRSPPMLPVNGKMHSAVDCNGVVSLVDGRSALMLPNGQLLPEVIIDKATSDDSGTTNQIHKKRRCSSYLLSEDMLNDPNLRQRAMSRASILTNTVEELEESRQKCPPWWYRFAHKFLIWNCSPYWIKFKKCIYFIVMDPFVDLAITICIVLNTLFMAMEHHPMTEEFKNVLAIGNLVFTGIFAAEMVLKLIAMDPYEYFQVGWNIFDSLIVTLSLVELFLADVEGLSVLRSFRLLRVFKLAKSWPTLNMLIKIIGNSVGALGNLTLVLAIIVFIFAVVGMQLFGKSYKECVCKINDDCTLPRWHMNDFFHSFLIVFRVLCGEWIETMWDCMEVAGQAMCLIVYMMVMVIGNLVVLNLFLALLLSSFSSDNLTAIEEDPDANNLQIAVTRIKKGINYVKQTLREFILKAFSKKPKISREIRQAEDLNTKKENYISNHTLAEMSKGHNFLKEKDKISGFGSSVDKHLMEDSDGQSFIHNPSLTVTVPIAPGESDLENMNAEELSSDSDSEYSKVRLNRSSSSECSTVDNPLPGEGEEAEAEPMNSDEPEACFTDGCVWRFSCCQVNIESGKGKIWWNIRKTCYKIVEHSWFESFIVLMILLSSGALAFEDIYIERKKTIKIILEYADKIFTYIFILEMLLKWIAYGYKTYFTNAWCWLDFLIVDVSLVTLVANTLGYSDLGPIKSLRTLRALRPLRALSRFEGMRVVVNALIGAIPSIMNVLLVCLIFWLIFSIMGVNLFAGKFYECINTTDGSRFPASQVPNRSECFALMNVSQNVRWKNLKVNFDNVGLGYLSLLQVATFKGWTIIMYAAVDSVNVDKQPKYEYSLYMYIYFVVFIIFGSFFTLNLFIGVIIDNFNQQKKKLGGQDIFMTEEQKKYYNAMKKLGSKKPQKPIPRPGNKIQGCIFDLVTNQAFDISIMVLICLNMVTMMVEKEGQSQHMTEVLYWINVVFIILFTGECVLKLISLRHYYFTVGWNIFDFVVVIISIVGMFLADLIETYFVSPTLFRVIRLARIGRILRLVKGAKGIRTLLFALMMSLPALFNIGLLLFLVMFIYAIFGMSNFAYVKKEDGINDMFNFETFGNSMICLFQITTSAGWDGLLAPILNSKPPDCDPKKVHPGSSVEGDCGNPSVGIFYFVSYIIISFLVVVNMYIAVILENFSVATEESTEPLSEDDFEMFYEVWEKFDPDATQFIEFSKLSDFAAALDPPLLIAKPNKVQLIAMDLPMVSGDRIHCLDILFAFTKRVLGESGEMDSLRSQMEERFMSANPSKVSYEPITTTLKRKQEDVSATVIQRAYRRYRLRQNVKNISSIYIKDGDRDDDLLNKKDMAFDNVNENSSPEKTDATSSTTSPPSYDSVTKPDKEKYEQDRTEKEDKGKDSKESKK
row,SMILES,IC50
1,"O=C(c1ccc2cc(Oc3ccc(C(F)(F)F)cn3)ccc2n1)N1CCNC[C@@H]1CO [Example 243, [(2R)-2-(hydroxymethyl)piperazin-1-yl](6-{[5-(trifluoromethyl)pyridin-2-yl]oxy}quinolin-2-yl)methanone]",> 20 µM
2,"O=C(c1ccc2cc(Oc3ncc(F)cn3)ccc2n1)N1CCNCC1 [Example 244, {6[(5-fluoropyrimidin-2-yl)oxy]quinolin-2-yl}(piperazin-1-yl)methanone]",> 20 µM
3,"O=C(c1ccc2cc(Oc3ccc(C(F)(F)F)nn3)ccc2n1)N1CCNCC1 [Example 246, piperazin-1-yl(6-{[6-(trifluoromethyl)pyridazin-3-yl]oxy}quinolin-2-yl)methanone]",19.8 µM
4,"N[C@H]1CC[C@@H]2CN(C(=O)c3ccc4cc(Oc5ccc(C(F)(F)F)cn5)ccc4n3)C[C@@H]21 [Example 248, [(3aR,4S,6aS)-4-aminohexahydrocyclopenta[c]pyrrol-2(1H)-yl](6-{[5-(trifluoromethyl)pyridin-2-yl]oxy}quinolin-2-yl)methanone]",17.3 µM
5,"O=C(c1ccc2cc(Oc3ccc(C(F)(F)F)cn3)ccc2n1)N1CCN(C2COC2)CC1 [Example 252, [4-(oxetan-3-yl)piperazin-1-yl](6-{[5-(trifluoromethyl)pyridin-2-yl]oxy}quinolin-2-yl)methanone]",> 20 µM
6,"O=C(c1ccc2cc(Oc3ccc(C(F)(F)F)cn3)ccc2n1)N1CCc2ccccc2C1 [Example 253, 3,4-dihydroisoquinolin-2(1H)-yl(6-{[5-(trifluoromethyl)pyridin-2-yl]oxy}quinolin-2-yl)methanone]",> 20 µM
7,"CS(=O)(=O)C1CCN(C(=O)c2ccc3cc(Oc4ccc(C(F)(F)F)cn4)ccc3n2)CC1 [Example 254, [4-(methylsulfonyl)piperidin-1-yl](6-{[5-(trifluoromethyl)pyridin-2-yl]oxy}quinolin-2-yl)methanone]",13.8 µM
8,"CC1(O)CCN(C(=O)c2ccc3cc(Oc4ccc(C(F)(F)F)cn4)ccc3n2)CC1 [Example 255, (4-hydroxy-4-methylpiperidin-1-yl)(6-{[5-(trifluoromethyl)pyridin-2-yl]oxy}quinolin-2-yl)methanone]",12.1 µM
9,"O=C(c1ccc2cc(Oc3ccc(C(F)(F)F)cn3)ccc2n1)N1C[C@@H]2C[C@@H](CO)[C@H]1C2 [Example 257, [(1R,4R,6R)-6-(hydroxymethyl)-2-azabicyclo[2.2.1]hept-2-yl](6-{[5-(trifluoromethyl)pyridin-2-yl]oxy}quinolin-2-yl)methanone]",10.6 µM
10,"O=C(c1ccc2cc(Oc3ccc(C(F)(F)F)cn3)ccc2n1)N1C[C@@H]2C[C@H](CO)[C@H]1C2 [Example 258, [(1R,4R,6S)-6-(hydroxymethyl)-2-azabicyclo[2.2.1]hept-2-yl](6-{[5-(trifluoromethyl)pyridin-2-yl]oxy}quinolin-2-yl)methanone]",6.13 µM
11,"CN1CCCN(C(=O)c2ccc3cc(Oc4ccc(C(F)(F)F)cn4)ccc3n2)CC1 [Example 260, (4-methyl-1,4-diazepan-1-yl)(6-{[5-(trifluoromethyl)pyridin-2-yl]oxy}quinolin-2-yl)methanone]",1.04 µM
12,"O=C(c1ccc2cc(Oc3ccc(C(F)(F)F)cn3)ccc2n1)N1CCN(C2CC2)CC1 [Example 261, (4-cyclopropylpiperazin-1-yl)(6-{[5-(trifluoromethyl)pyridin-2-yl]oxy}quinolin-2-yl)methanone]",6.31 µM
13,"O=C(c1ccc2cc(Oc3ccc(C(F)(F)F)cn3)ccc2n1)N1CCN(c2ccccc2)CC1 [Example 262, (4-phenylpiperazin-1-yl)(6-{[5-(trifluoromethyl)pyridin-2-yl]oxy}quinolin-2-yl)methanone]",2.09 µM
14,"CC(C)[C@@H]1CN(C(=O)c2ccc3cc(Oc4ccc(C(F)(F)F)cn4)ccc3n2)CCN1 [Example 263, [(3R)-3-isopropylpiperazin-1-yl](6-{[5-(trifluoromethyl)pyridin-2-yl]oxy}quinolin-2-yl)methanone]",0.402 µM
15,"O=C(NC1CCNCC1)c1ccc2cc(Oc3ccc(C(F)(F)F)cn3)ccc2n1 [Example 264, N-(piperidin-4-yl)-6-{[5-(trifluoromethyl)pyridin-2-yl]oxy}quinoline-2-carboxamide]",3.21 µM
16,"O=C(c1ccc2cc(Oc3ccc(C(F)(F)F)cn3)ccc2n1)N1CCC(CO)CC1 [Example 265, [4-(hydroxymethyl)piperidin-1-yl](6-{[5-(trifluoromethyl)pyridin-2-yl]oxy}quinolin-2-yl)methanone]",3.45 µM
17,"O=C(c1ccc2cc(Oc3ccc(C(F)(F)F)cn3)ccc2n1)N1CCC(CO)C1 (stereo not drawn) [Example 266, [3-(hydroxymethyl)pyrrolidin-1-yl](6-{[5-(trifluoromethyl)pyridin-2-yl]oxy}quinolin-2-yl)methanone]",5.76 µM
18,"O=C(c1ccc2cc(Oc3ccc(C(F)(F)F)cn3)ccc2n1)N1CCN(c2cnccn2)CC1 [Example 268, [4-(pyrazin-2-yl)piperazin-1-yl](6-{[5-(trifluoromethyl)pyridin-2-yl]oxy}quinolin-2-yl)methanone]",2.98 µM
19,"O=C(c1ccc2cc(Oc3ccc(C(F)(F)F)cn3)ccc2n1)N1CCN(c2cccnc2)CC1 [Example 269, [4-(pyridin-3-yl)piperazin-1-yl](6-{[5-(trifluoromethyl)pyridin-2-yl]oxy}quinolin-2-yl)methanone]",3.07 µM
20,"O=C(c1ccc2cc(Oc3ccc(C(F)(F)F)cn3)ccc2n1)N1CCN(c2ncccn2)CC1 [Example 270, [4-(pyrimidin-2-yl)piperazin-1-yl](6-{[5-(trifluoromethyl)pyridin-2-yl]oxy}quinolin-2-yl)methanone]",3.08 µM

# Same assay, conditions: read-out: FRET-Membrane Potential Nav1.7 IC50
row,SMILES,IC50
1,"O=C(c1ccc2cc(Oc3cnc(C(F)(F)F)cn3)ccc2n1)N1CCNCC1 [Example 245, piperazin-1-yl(6-{[5-(trifluoromethyl)pyrazin-2-yl]oxy}quinolin-2-yl)methanone]",4.63 µM
2,"O=C(c1ccc2cc(Oc3ncc(C(F)(F)F)cn3)ccc2n1)N1CCNCC1 [Example 247, piperazin-1-yl(6-{[5-(trifluoromethyl)pyrimidin-2-yl]oxy}quinolin-2-yl)methanone]",13.3 µM
3,"O=C(c1ccc2cc(Oc3ccc(C(F)(F)F)cc3)ccc2n1)N1CCNCC1 [Example 249, piperazin-1-yl {6-[4-(trifluoromethyl)phenoxy]quinolin-2-yl}methanone]",0.902 µM
4,"O=C(c1ccc2cc(Oc3ncc(C(F)(F)F)cc3F)ccc2n1)N1CCNCC1 [Example 250, (6-{[3-fluoro-5-(trifluoromethyl)pyridin-2-yl]oxy}quinolin-2-yl)(piperazin-1-yl)methanone]",1.39 µM
5,"O=C(c1ccc2cc(Oc3ccc(C(F)(F)F)cn3)ccc2n1)N1CCC(O)CC1 [Example 256, (4-hydroxypiperidin-1-yl)(6-{[5-(trifluoromethyl)pyridin-2-yl]oxy}quinolin-2-yl)methanone]",16.4 µM
6,"O=C(N[C@@H]1CC[C@@H]2CN(Cc3ccccc3)C[C@@H]21)c1ccc2cc(Oc3ccc(C(F)(F)F)cn3)ccc2n1 [Example 259, N-[(3aR,4R,6aS)-2-benzyloctahydrocyclopenta[c]pyrrol-4-yl]-6-{[5-(trifluoromethyl)pyridin-2-yl]oxy}quinoline-2-carboxamide]",2.06 µM
7,"O=C(NC1CC2CCC(C1)N2)c1ccc2cc(Oc3ccc(C(F)(F)F)cn3)ccc2n1 (stereo not drawn) [Example 267, N-(8-azabicyclo[3.2.1]oct-3-yl)-6-{[5-(trifluoromethyl)pyridin-2-yl]oxy}quinoline-2-carboxamide]",10.2 µM
